In this experiment the target is T1, Human M4 mAChR (Homo sapiens, UniProt P08173).
T1 construct: host or cells: HEK293 (Sor-L9 HEK293 human/M4/GloSensor Cell Clone Number 40)
T1 sequence (P08173 1-479): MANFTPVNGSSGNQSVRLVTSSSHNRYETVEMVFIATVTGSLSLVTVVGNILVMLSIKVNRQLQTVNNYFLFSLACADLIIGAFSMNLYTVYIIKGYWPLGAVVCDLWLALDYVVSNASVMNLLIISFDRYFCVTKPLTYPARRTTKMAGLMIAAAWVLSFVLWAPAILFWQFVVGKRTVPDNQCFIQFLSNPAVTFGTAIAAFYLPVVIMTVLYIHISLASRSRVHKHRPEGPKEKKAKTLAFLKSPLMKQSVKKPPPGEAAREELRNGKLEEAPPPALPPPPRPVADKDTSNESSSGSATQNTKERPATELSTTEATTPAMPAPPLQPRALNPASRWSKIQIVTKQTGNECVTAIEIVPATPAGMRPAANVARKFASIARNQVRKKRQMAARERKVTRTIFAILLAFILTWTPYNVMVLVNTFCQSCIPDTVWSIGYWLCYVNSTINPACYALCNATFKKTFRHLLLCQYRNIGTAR
The experiment in a line: Muscarinic hM4 Agonist GloSensor cAMP Assay. Type of experiment: cell-based. The note with it: geometric mean; for Emax: Emax: maximum asymptote of concentration response curve, relative to ACh positive control (EC100) and DMSO, read-out: % maximum effect; for EC50: HEK293 human/M4/GloSensor cells, EC80 isoproterenol, number of determinations in parentheses, read-out: EC50. As to the method: Muscarinic hM4 Agonist GloSensor cAMP Assay Methods
Compounds were prepared in advance of the assay. Test compounds were solubilized in 100% dimethyl sulfoxide (DMSO, Sigma D8418) to a concentration of 30 mM. A 10-point intermediate dilution series using half log dilutions was created in 100% DMSO with a top concentration of 4 mM. The serially diluted compounds were spotted as 200 nL/well in a 384-well plate (Matrix Catalog Number 4325). The final compound concentration range in the assay was […] to 0.3 nM with a final DMSO concentration of 0.25%.
Human M4 mAChR expressing stable cell lines were generated using a parental HEK cell expressing the GloSensor construct (Promega Sor-L9 HEK293 human/M4/GloSensor Cell Clone Number 40). The cells were grown in 90% Dulbecco's Modified Eagle Medium (DMEM, Gibco 11960), 10% fetal bovine serum (FBS, Hyclone CH.30160-03), 1% Penicillin/Streptomycin (Gibco 15070-063), 500 µg/mL Geneticin (Gibco 10131-027), 200 µg/mL Hygromycin B (Invitrogen 10687-010) and 1% Glutamax (Thermo Fisher 35050061).
One day prior to assay, the cells were lifted using dissociation buffer (Gibco 13151-014) and spun in a centrifuge at 250 times gravity for 5 minutes at room temperature. Supernatant was removed and the cell pellet was resuspended in growth media to a concentration of […]. Cells were then added to white poly-d-lysine coated plates (Becton Dickinson 356661) as 40 μL per well (25,000 cells) and incubated overnight (20-24 hours) in a 37° C. humidified incubator with 5% carbon dioxide (C02).
The following day, culture media was removed from the cell plates and replaced with […] equilibration medium containing 88% CO2-independent medium (Invitrogen 18045088), 10% FBS and 2% GloSensor cAMP reagent (Promega E1291) that had been warmed to 37° C. Plates were then covered and incubated for 2 hours at room temperature while protected from light.
To the previously prepared serially diluted compound plates, 200 nL of 4 mM ACh (Sigma A2661, 10 μM final) or 200 nL of 100% DMSO (0.25% final) was added to the positive and negative control wells, respectively. Compound plates were then diluted by adding 16 μL of C02-independent media containing 10% FBS and an EC80 concentration of isoproterenol (Sigma 16504). Prior to compound testing, concentration response curves were run for isoproterenol to determine the EC80 concentration. At the end of the 2 hour equilibration, 10 µL was transferred from the compound plates to the cell plates. The cell plates were incubated an additional 7 minutes at room temperature and then read using a Multi-label EnVision plate reader (Perkin Elmer) for luminescence.
The raw data, expressed as relative light units, was analyzed using Activity Base (IDBS). The percent effect at each compound concentration was calculated based on and relative to the amount of cAMP produced by the positive and negative control wells contained on each assay plate. The positive control wells contained an EC100 concentration of ACh and the negative control wells contained only DMSO. The concentration and % effect values were fit using a four-parameter logistic dose response equation, and the concentration required for 50% effect (EC50) was determined as well as the maximum asymptote of the concentration response curve to define the efficacy.

SMILES strings stand for the structures.

As for `CCOC(=O)N1CC2(CCC(N3CCN(c4ncccc4N4CC(C#N)C4)CC3)C2)C1` (stereo not shown) [Example 30, ethyl 6-{4-[3-(3-cyanoazetidin-1-yl)pyridin-2-yl]piperazin-1-yl}-2-azaspiro[3.4]octane-2-carboxylate], the Emax worked out at 70.3% and the EC50 came to 2.28 nM.

As for `CCOC(=O)N1CC2(CC(N3CCN(c4ncccc4-c4sncc4C)CC3)C2)C1` [Example 31, ethyl 6-{4-[3-(4-methyl-1,2-thiazol-5-yl)pyridin-2-yl]piperazin-1-yl}-2-azaspiro[3.3]heptane-2-carboxylate], the Emax was determined as 101% and the EC50 was found to be 13.5 nM.

`CCOC(=O)N1CC2(CC(N3CCN(c4ncccc4-c4cc(C)ns4)CC3)C2)C1` [Example 32, ethyl 6-{4-[3-(3-methyl-1,2-thiazol-5-yl)pyridin-2-yl]piperazin-1-yl}-2-azaspiro[3.3]heptane-2-carboxylate]: the Emax was 84.3% and the EC50 came to 27.8 nM.

Take `CCOC(=O)N1CC2(CCC(N3CCN(c4ncccc4-c4cnsn4)CC3)C2)C1` (stereo not shown) [Example 33, ethyl 6-{4-[3-(1,2,5-thiadiazol-3-yl)pyridin-2-yl]piperazin-1-yl}-2-azaspiro[3.4]octane-2-carboxylate]: the Emax is 92.3% and the EC50 worked out at 1.31 nM.

For the molecule `CCOC(=O)N1CC2(CC(N3CCN(c4ncccc4-c4cnccn4)CC3)C2)C1` [Example 35, ethyl 6-{4-[3-(pyrazin-2-yl)pyridin-2-yl]piperazin-1-yl}-2-azaspiro[3.3]heptane-2-carboxylate], the Emax came out at 94.2% and the EC50 is 304 nM.

`CCOC(=O)N1CC2(CCC(N3CCN(c4ncccc4-c4sc(C)nc4C)CC3)C2)C1` (stereo not shown) [Example 36, ethyl 6-{4-[3-(2,4-dimethyl-1,3-thiazol-5-yl)pyridin-2-yl]piperazin-1-yl}-2-azaspiro[3.4]octane-2-carboxylate]: the Emax is 80.6% and the EC50 is 7.72 nM.

As for `CCOC(=O)N1CC2(CCC(N3CCN(c4ncccc4-c4cncc(OC(F)F)c4)CC3)C2)C1` (stereo not shown) [Example 37, ethyl 6-{4-[5′-(difluoromethoxy)-3,3′-bipyridin-2-yl]piperazin-1-yl}-2-azaspiro[3.4]octane-2-carboxylate], the Emax came out at 24.7% and the EC50 is 6.1 nM.

Turning to `CCOC(=O)N1CC2(CCC(N3CCN(c4ncccc4-c4ccc(OC)nc4)CC3)C2)C1` (stereo not shown) [Example 38, ethyl 6-[4-(6′-methoxy-3,3′-bipyridin-2-yl)piperazin-1-yl]-2-azaspiro[3.4]octane-2-carboxylate], the Emax was 74.7% and the EC50 is 1.17 nM.

With `CCOC(=O)N1CC2(CCC(N3CCN(c4ncccc4-c4ccc5nccn5c4)CC3)C2)C1` (stereo not shown) [Example 39, ethyl 6-{4-[3-(imidazo[1,2-a]pyridin-6-yl)pyridin-2-yl]piperazin-1-yl}-2-azaspiro[3.4]octane-2-carboxylate], the Emax was 59.6% and the EC50 stood at 11.7 nM.

As to `CCOC(=O)N1CC2(CCC(N3CCN(c4ncccc4-c4ccc5nncn5c4)CC3)C2)C1` (stereo not shown) [Example 40, ethyl 6-{4-[3-([1,2,4]triazolo[4,3-a]pyridin-6-yl)pyridin-2-yl]piperazin-1-yl}-2-azaspiro[3.4]octane-2-carboxylate], the Emax worked out at 81.6% and the EC50 worked out at 12 nM.

Take `CCOC(=O)N1CC2(CC[C@@H](N3CCN(c4nccnc4N4CCOCC4)CC3)C2)C1` [Example 42, ethyl (6R)-6-{4-[3-(morpholin-4-yl)pyrazin-2-yl]piperazin-1-yl}-2-azaspiro[3.4]octane-2-carboxylate]: the Emax came out at 92.9% and the EC50 turned out to be 12.3 nM.

With `CCOC(=O)N1CC2(CC[C@@H](N3CCN(c4nccnc4N4CCC(OC)CC4)CC3)C2)C1` [Example 43, ethyl (6R)-6-{4-[3-(4-methoxypiperidin-1-yl)pyrazin-2-yl]piperazin-1-yl}-2-azaspiro[3.4]octane-2-carboxylate], the Emax came out at 55.5% and the EC50 was found to be 1.51 nM.

Take `CCOC(=O)N1CC2(CC[C@@H](N3CCN(c4ncccc4N4CC5(COC5)C4)CC3)C2)C1` [Example 44, ethyl (6R)-6-{4-[3-(2-oxa-6-azaspiro[3.3]hept-6-yl)pyridin-2-yl]piperazin-1-yl}-2-azaspiro[3.4]octane-2-carboxylate]: the Emax worked out at 92.5% and the EC50 was found to be 1 nM.

On to `CCOC(=O)N1CC2(CCC(N3CCN(c4ncccc4-c4cccnn4)CC3)C2)C1` (stereo not shown) [Example 45, ethyl 6-{4-[3-(pyridazin-3-yl)pyridin-2-yl]piperazin-1-yl}-2-azaspiro[3.4]octane-2-carboxylate], for which the Emax worked out at 35.2% and the EC50 was 8.2 nM.

As to `CCOC(=O)N1CC2(CC[C@@H](N3CCN(c4ncccc4-c4ccncn4)CC3)C2)C1` [Example 46, ethyl (6R)-6-{4-[3-(pyrimidin-4-yl)pyridin-2-yl]piperazin-1-yl}-2-azaspiro[3.4]octane-2-carboxylate], the Emax was determined as 96.6% and the EC50 is < 1.75 nM.

`CCOC(=O)N1CC2(CC[C@@H](N3CCN(c4ncccc4-c4cnc(C)nc4)CC3)C2)C1` [Example 47, ethyl (6R)-6-{4-[3-(2-methylpyrimidin-5-yl)pyridin-2-yl]piperazin-1-yl}-2-azaspiro[3.4]octane-2-carboxylate]: the Emax came to 63.5% and the EC50 stood at 2.78 nM.

As for `CCOC(=O)N1CC2(CCC(N3CCN(c4ncccc4-c4cnc(O)cn4)CC3)C2)C1` (stereo not shown) [Example 48, ethyl 6-{4-[3-(5-hydroxypyrazin-2-yl)pyridin-2-yl]piperazin-1-yl}-2-azaspiro[3.4]octane-2-carboxylate], the Emax was determined as 83.9% and the EC50 worked out at 8.49 nM.

As to `CCOC(=O)N1CC2(CC[C@@H](N3CCN(c4ncccc4-c4cnn(CCCCC#N)c4)CC3)C2)C1` [Example 49, ethyl (6R)-6-(4-{3-[1-(4-cyanobutyl)-1H-pyrazol-4-yl]pyridin-2-yl}piperazin-1-yl)-2-azaspiro[3.4]octane-2-carboxylate], the Emax was found to be 60.9% and the EC50 stood at 0.596 nM.

Turning to `CCOCCn1cc(-c2cccnc2N2CCN([C@@H]3CCC4(C3)CN(C(=O)OCC)C4)CC2)cn1` [Example 50, ethyl (6R)-6-(4-{3-[1-(2-ethoxyethyl)-1H-pyrazol-4-yl]pyridin-2-yl}piperazin-1-yl)-2-azaspiro[3.4]octane-2-carboxylate], the Emax amounted to 89.4% and the EC50 was < 0.389 nM.

As to `CCOC(=O)N1CC2(CC[C@@H](N3CCN(c4ncccc4-c4nnc(C)o4)CC3)C2)C1` [Example 51, ethyl (6R)-6-{4-[3-(5-methyl-1,3,4-oxadiazol-2-yl)pyridin-2-yl]piperazin-1-yl}-2-azaspiro[3.4]octane-2-carboxylate], the Emax amounted to 68.6% and the EC50 stood at 1.99 nM.

Source of the values: patent US12398119B2, “Piperazine azaspiro derivatives” (PFIZER INC., priority 2018, dated 2025).
